Assay results published in patent EP1007530B1, “6-O-SUBSTITUTED ERYTHROMYCIN COMPOUNDS AND METHOD FOR MAKING SAME” (ABBOTT LABORATORIES, priority 1996, dated 1997).

Legend:
Experiment in all cases: In vitro assay of antibacterial activity (agar dilution MIC)
Type in all cases: cell-based
[1] = system: Streptococcus pyogenes 930; conditions: BHI agar, 35-37 °C, 20 to 24 hours, unit assumed
Procedure: (§1) Representative compounds of the present invention were assayed in vitro for antibacterial activity as follows: Twelve petri dishes containing successive aqueous dilutions of the test compound mixed with 10 mL of sterilized Brain Heart Infusion (BHI) agar (Difco 0418-01-5) were prepared. Each plate was inoculated with 1:100 (or 1:10 for slow-growing strains, such as Micrococcus and Streptococcus) dilutions of up to 32 different microorganisms, using a Steers replicator block. The inoculated plates were incubated at 35-37 °C for 20 to 24 hours, In addition, a control plate, using BHI agar containing no test compound, was prepared and incubated at the beginning and end of each test.
(§2) An additional plate containing a compound having known susceptibility patterns for the organisms being tested and belonging to the same antibiotic class as the test compound was also prepared and incubated as a further control, as well as to provide test-to-test comparability. Erythromycin A was used for this purpose.
(§3) After incubation, each plate was visually inspected. The minimum inhibitory concentration (MIC) was defined as the lowest concentration of drug yielding no growth, a slight haze, or sparsely isolated colonies on the inoculum spot as compared to the growth control. […]

[2] = system: Micrococcus luteus ATCC 9341; conditions: BHI agar, 35-37 °C, 20 to 24 hours, unit assumed
Procedure: as §1, §2, §3

[3] = system: Escherichia coli H560; conditions: BHI agar, 35-37 °C, 20 to 24 hours, unit assumed
Procedure: as §1, §2, §3

[4] = system: Escherichia coli JUHL; conditions: BHI agar, 35-37 °C, 20 to 24 hours, in µg/mL (unit assumed)
Procedure: as §1, §2, §3

[5] = system: Streptococcus bovis A-5169; conditions: BHI agar, 35-37 °C, 20 to 24 hours, unit assumed
Procedure: as §1, §2, §3

[6] = system: Pseudomonas capacia 2961; conditions: BHI agar, 35-37 °C, 20 to 24 hours, in µg/mL (unit assumed)
Procedure: as §1, §2, §3

[7] = system: Staphylococcus aureus CMX 642A; conditions: BHI agar, 35-37 °C, 20 to 24 hours, unit assumed
Procedure: as §1, §2, §3

[8] = system: Streptococcus pyogenes EES61; conditions: BHI agar, 35-37 °C, 20 to 24 hours, unit assumed
Procedure: as §1, §2, §3

[9] = system: Staphylococcus aureus 1775; conditions: BHI agar, 35-37 °C, 20 to 24 hours, unit assumed
Procedure: as §1, §2, §3

[10] = system: Klebsiella pneumoniae ATCC 8045; conditions: BHI agar, 35-37 °C, 20 to 24 hours, unit assumed
Procedure: as §1, §2, §3

[11] = system: Escherichia coli KNK 437; conditions: BHI agar, 35-37 °C, 20 to 24 hours, unit assumed
Procedure: as §1, §2, §3

[12] = system: Mycobacterium smegmatis ATCC 114; conditions: BHI agar, 35-37 °C, 20 to 24 hours, unit assumed
Procedure: as §1, §2, §3

[13] = system: Providencia struartii CMX 640; conditions: BHI agar, 35-37 °C, 20 to 24 hours, unit assumed
Procedure: as §1, §2, §3

[14] = system: Staphylococcus epidermidis 3519; conditions: BHI agar, 35-37 °C, 20 to 24 hours, unit assumed
Procedure: as §1, §2, §3

[15] = system: Staphylococcus aureus ATCC 6538P; conditions: BHI agar, 35-37 °C, 20 to 24 hours, unit assumed
Procedure: as §1, §2, §3

[16] = system: Enterobacter aerogenes ATCC 13048; conditions: BHI agar, 35-37 °C, 20 to 24 hours, unit assumed
Procedure: as §1, §2, §3

[17] = system: Pseudomonas aeruginosa K799/WT; conditions: BHI agar, 35-37 °C, 20 to 24 hours, unit assumed
Procedure: as §1, §2, §3

[18] = system: Pseudomonas aeruginosa DPHD-2862; conditions: BHI agar, 35-37 °C, 20 to 24 hours, unit assumed
Procedure: as §1, §2, §3

[19] = system: Enterococcus faecium ATCC 8043; conditions: BHI agar, 35-37 °C, 20 to 24 hours, unit assumed
Procedure: as §1, §2, §3

[20] = system: Streptococcus agalactiae CMX 508; conditions: BHI agar, 35-37 °C, 20 to 24 hours, unit assumed
Procedure: as §1, §2, §3

[21] = system: Pseudomonas aeruginosa K799/61; conditions: BHI agar, 35-37 °C, 20 to 24 hours, unit assumed
Procedure: as §1, §2, §3

[22] = system: Pseudomonas aeruginosa BMH10; conditions: BHI agar, 35-37 °C, 20 to 24 hours, in µg/mL (unit assumed)
Procedure: as §1, §2, §3

[23] = system: Candida albicans CCH 442; conditions: BHI agar, 35-37 °C, 20 to 24 hours, unit assumed
Procedure: as §1, §2, §3

[24] = system: Pseudomonas aeruginosa DPHD-5263; conditions: BHI agar, 35-37 °C, 20 to 24 hours, in µg/mL (unit assumed)
Procedure: as §1, §2, §3

[25] = system: Micrococcus luteus ATCC 4698; conditions: BHI agar, 35-37 °C, 20 to 24 hours, unit assumed
Procedure: as §1, §2, §3

[26] = system: Pseudomonas aeruginosa 5007; conditions: BHI agar, 35-37 °C, 20 to 24 hours, unit assumed
Procedure: as §1, §2, §3

[27] = system: Staphylococcus aureus A-5278; conditions: BHI agar, 35-37 °C, 20 to 24 hours, unit assumed
Procedure: as §1, §2, §3

[28] = system: Escherichia coli DC-2; conditions: BHI agar, 35-37 °C, 20 to 24 hours, unit assumed
Procedure: as §1, §2, §3

[29] = system: Staphylococcus aureus NCTC10649M; conditions: BHI agar, 35-37 °C, 20 to 24 hours, unit assumed
Procedure: as §1, §2, §3

[30] = system: Escherichia coli SS; conditions: BHI agar, 35-37 °C, 20 to 24 hours, unit assumed
Procedure: as §1, §2, §3

[31] = system: Staphylococcus aureus CMX 553; conditions: BHI agar, 35-37 °C, 20 to 24 hours, unit assumed
Procedure: as §1, §2, §3

[32] = system: Actinetobacter calcoaceticus CMX 669; conditions: BHI agar, 35-37 °C, 20 to 24 hours, unit assumed
Procedure: as §1
(§4) An additional plate containing a compound having known susceptibility patterns for the organisms being tested and belonging to the same antibiotic class as the test compound was also prepared and incubated as a further control, as well as to provide test-to-test comparability.
as §3

[33] = system: Staphylococcus aureus A5177; conditions: BHI agar, 35-37 °C, 20 to 24 hours, unit assumed
Procedure: as §1, §4, §3

[34] = system: Streptococcus pyogenes PIU 2548; conditions: BHI agar, 35-37 °C, 20 to 24 hours, unit assumed
Procedure: as §1, §2, §3

| Compound | MIC [1] | MIC [2] | MIC [3] | MIC [4] | MIC [6] | MIC [7] | MIC [8] | MIC [9] | MIC [10] | MIC [11] | MIC [12] | MIC [13] | MIC [14] | MIC [15] | MIC [16] | MIC [17] | MIC [18] | MIC [19] | MIC [20] | MIC [21] | further results |
| --- | --- | --- | --- | --- | --- | --- | --- | --- | --- | --- | --- | --- | --- | --- | --- | --- | --- | --- | --- | --- | --- |
| CC[C@H]1OC(=O)[C@H](C)[C@@H](O[C@H]2C[C@@](C)(OC)[C@@H](O)[C@H](C)O2)[C@H](C)[C@@H](O[C@@H]2O[C@H](C)C[C@H](N(C)C)[C@H]2O)[C@](C)(OCC(O)Cn2ccnc2)C[C@@H](C)C(=O)[C@H](C)[C@@H](O)[C@]1(C)O (stereo partly drawn) [Example 5, Compound of Formula (X): X is =O, R is 2-hydroxy-3-(imidazol-1-yl)propyl] | > 100 µg/mL | 0.1 µg/mL | 50 µg/mL | 25 | > 100 | 0.78 µg/mL | 0.05 µg/mL | > 100 µg/mL | 100 µg/mL | 50 µg/mL | 1.56 µg/mL | > 100 µg/mL | 1.56 µg/mL | 0.78 µg/mL | 100 µg/mL | > 100 µg/mL | > 100 µg/mL | 0.39 µg/mL | 0.1 µg/mL | 1.56 µg/mL | MIC [5]: 0.05 µg/mL; MIC [22]: 100; MIC [23]: > 100 µg/mL; MIC [24]: > 100; MIC [25]: 3.1 µg/mL; MIC [26]: > 100 µg/mL; MIC [27]: > 100 µg/mL; MIC [28]: 50 µg/mL; MIC [29]: 0.78 µg/mL; MIC [30]: 0.78 µg/mL; MIC [31]: 0.78 µg/mL; MIC [32]: 12.5 µg/mL; MIC [33]: 12.5 µg/mL |
| C#CCO[C@]1(C)C[C@@H](C)C(=O)[C@H](C)[C@@H](O)[C@](C)(O)[C@@H](CC)OC(=O)[C@H](C)[C@@H](O[C@H]2C[C@@](C)(OC)[C@@H](O)[C@H](C)O2)[C@H](C)[C@H]1O[C@@H]1O[C@H](C)C[C@H](N(C)C)[C@H]1O [Example 10, Compound of Formula (X): X is =O, R is -CH2-C≡CH] | > 100 µg/mL | 0.05 µg/mL | 25 µg/mL | 50 | >100 | 0.39 µg/mL | 0.01 µg/mL | > 100 µg/mL | > 100 µg/mL | > 100 µg/mL | 0.39 µg/mL | > 100 µg/mL | 0.2 µg/mL | 0.2 µg/mL | > 100 µg/mL | > 100 µg/mL | > 100 µg/mL | 0.1 µg/mL | 0.05 µg/mL | 3.1 µg/mL | MIC [5]: 0.01 µg/mL; MIC [22]: 100; MIC [23]: > 100 µg/mL; MIC [24]: > 100; MIC [25]: 0.78 µg/mL; MIC [26]: > 100 µg/mL; MIC [27]: > 100 µg/mL; MIC [28]: 100 µg/mL; MIC [29]: 0.39 µg/mL; MIC [30]: 0.78 µg/mL; MIC [31]: 0.39 µg/mL; MIC [32]: 12.5 µg/mL; MIC [33]: 6.2 µg/mL |
| CC[C@H]1OC(=O)[C@H](C)[C@@H](O[C@H]2C[C@@](C)(OC)[C@@H](O)[C@H](C)O2)[C@H](C)[C@@H](O[C@@H]2O[C@H](C)C[C@H](N(C)C)[C@H]2O)[C@](C)(OCC(O)CN2CCOCC2)C[C@@H](C)C(=O)[C@H](C)[C@@H](O)[C@]1(C)O (stereo partly drawn) [Example 6, Comnound of Formula (X): X is =O, R is 2-hydroxy-3-(morpholin-4-yl)propyl] | > 100 µg/mL | 0.1 µg/mL | 100 µg/mL | > 100 | > 100 | 1.56 µg/mL | 0.05 µg/mL | > 100 µg/mL | > 100 µg/mL | > 100 µg/mL | 0.2 µg/mL | > 100 µg/mL | 0.78 µg/mL | 0.78 µg/mL | > 100 µg/mL | > 100 µg/mL | > 100 µg/mL | 0.39 µg/mL | 0.1 µg/mL | 12.5 µg/mL | MIC [34]: 6.2 µg/mL; MIC [22]: > 100; MIC [23]: > 100 µg/mL; MIC [24]: > 100; MIC [25]: 1.56 µg/mL; MIC [26]: > 100 µg/mL; MIC [27]: > 100 µg/mL; MIC [28]: > 100 µg/mL; MIC [29]: 0.78 µg/mL; MIC [30]: 0.78 µg/mL; MIC [31]: 0.78 µg/mL; MIC [32]: 25 µg/mL; MIC [33]: 25 µg/mL |
